From patent US8828696B2, “Use of Penicillin G Procaine as a selective antimicrobial agent in the production of alcohol by fermentation” (Lallemand Specialites, Inc, priority 2008, dated 2014)

How the values were obtained:
[1] = tested on: Lactobacillus fermentum; assay: Bacterial inhibition test; type: cell-based; set-up: key: successful test corresponding to no growth is represented as (=); barely discernable growth is represented as (±); easily noticeable bacterial growth is represented as (+)
Description: (§1) To directly measure the efficacy of Penicillin G Procaine and Penicillin G Potassium a bacterial inhibition test was designed using industrial isolates and chosen ATCC strains. The inhibition testing was spread over 0.1 ppm to 5.0 ppm for the Lactobacillus fermentum and 1.0 ppm to 5.0 ppm for Lactobacillus brevis species of bacteria due to the lack of response of Lactobacillus brevis at lower concentrations. […] The strains used were two isolates of Lactobacillus fermentum and 2 isolates of Lactobacillus brevis. The Lactobacillus fermentum series contained both an industry derived isolate Ind 1 and an ATCC strain while the Lactobacillus brevis series comprised of two isolates, Ind 1 and Ind 43 derived from the ethanol plants. The inhibition test plates were set in triplicate and read at 12 hour intervals up to 48 hours of test endpoint. The results below represent the mode average of the outcome from the triplicate inhibitory test sets for each trial. Table 11 lists the Lactobacillus fermentum and the Lactobacillus brevis results of the inhibition testing as follows: successful test corresponding to no growth is represented as (=), barely discernable growth is represented as (±) and easily noticeable bacterial growth is represented as (+). The set of control tests depict (=) control as just broth and (+) control as just broth with bacteria but without any antibiotic.
(§2) The trial was set up as follows:
(§3) • 1. Weigh out 0.1 g of each sample to be tested into a 15 ml centrifuge tube. • 2. Dissolve sample into 10 ml sterile water. […] Add antibiotic to clean tube, add 2 ml water. • b. Vortex, if antibiotic goes into solution add water for final volume of 10 ml. • c. […] Vortex until all material is in solution. • 3. Vortex the solutions to make sure that they are well mixed. • 4. Filter the solutions through a 0.2 μm syringe filter into a second labeled sterile centrifuge tube. • 5. Add antibiotic solution to MRS Broth for a final volume of 10 ml at the test concentration for each antibiotic. • 6. Mix organism solutions and add 2 μl to each of 3 wells of a 24 well plate. If tubes are used add the 2 μl to each of three tubes for each antibiotic. • 7. Transfer 1 ml of the antibiotic-broth solution to each well containing bacteria. • 8. Recap remaining antibiotic solution and return the tube to the tube rack. This tube will become the negative control for each dilution created. • 9. Add four μl of each bacterial culture to another set of wells and add […] of broth without antibiotics. These wells will be the positive controls. • 10. Incubate plates and tubes at 33 C for 48 hours, examining all samples at 24 hours for growth. Any turbidity detected should be a result of bacterial growth.

[2] = tested on: Lactobacillus brevis; assay: Bacterial inhibition test; type: cell-based; set-up: key to bacterial growth in inhibition test: successful test corresponding to no growth is represented as (=); barely discernable growth is represented as (±); easily noticeable bacterial growth is represented as (+)
Description: as §1, §2, §3

CC1(C)S[C@@H]2[C@H](NC(=O)Cc3ccccc3)C(=O)N2[C@H]1C(=O)O.CCN(CC)CCOC(=O)c1ccc(N)cc1 [Penicillin G Procaine]
+: bacterial growth in inhibition test ([2]; Ind 1 L. brevis, 1 ppm, Inc Time 24) | bacterial growth in inhibition test ([2]; Ind 1 L. brevis, 1 ppm, Inc Time 36) | bacterial growth in inhibition test ([2]; Ind 1 L. brevis, 1 ppm, Inc Time 48) | bacterial growth in inhibition test ([2]; Ind 1 L. brevis, 2 ppm, Inc Time 24) | bacterial growth in inhibition test ([2]; Ind 1 L. brevis, 2 ppm, Inc Time 36) | bacterial growth in inhibition test ([2]; Ind 1 L. brevis, 2 ppm, Inc Time 48) | bacterial growth in inhibition test ([2]; Ind 1 L. brevis, 3 ppm, Inc Time 24) | bacterial growth in inhibition test ([2]; Ind 1 L. brevis, 3 ppm, Inc Time 36) | bacterial growth in inhibition test ([2]; Ind 1 L. brevis, 3 ppm, Inc Time 48) | bacterial growth in inhibition test ([2]; Ind 1 L. brevis, 4 ppm, Inc Time 36) | bacterial growth in inhibition test ([2]; Ind 1 L. brevis, 4 ppm, Inc Time 48) | bacterial growth in inhibition test ([2]; Ind 1 L. brevis, 5 ppm, Inc Time 48) | bacterial growth in inhibition test ([2]; Ind 43 L. brevis, 1 ppm, Inc Time 24) | bacterial growth in inhibition test ([2]; Ind 43 L. brevis, 1 ppm, Inc Time 36) | bacterial growth in inhibition test ([2]; Ind 43 L. brevis, 1 ppm, Inc Time 48) | bacterial growth in inhibition test ([2]; Ind 43 L. brevis, 2 ppm, Inc Time 24) | bacterial growth in inhibition test ([2]; Ind 43 L. brevis, 2 ppm, Inc Time 36) | bacterial growth in inhibition test ([2]; Ind 43 L. brevis, 2 ppm, Inc Time 48) | bacterial growth in inhibition test ([2]; Ind 43 L. brevis, 3 ppm, Inc Time 24) | bacterial growth in inhibition test ([2]; Ind 43 L. brevis, 3 ppm, Inc Time 36) | bacterial growth in inhibition test ([2]; Ind 43 L. brevis, 3 ppm, Inc Time 48) | bacterial growth in inhibition test ([2]; Ind 43 L. brevis, 4 ppm, Inc Time 36) | bacterial growth in inhibition test ([2]; Ind 43 L. brevis, 4 ppm, Inc Time 48) | bacterial growth in inhibition test ([2]; Ind 43 L. brevis, 5 ppm, Inc Time 48)
1.0 ppm: minimum inhibitory concentration ([2]; industry isolated Lactobacillus brevis, ppm of the fermentation mixture)
±: bacterial growth in inhibition test ([1]; ATCC L. fermentum, 0.1 ppm, Inc Time 48) | bacterial growth in inhibition test ([1]; Ind 1 L. fermentum, 0.1 ppm, Inc Time 24) | bacterial growth in inhibition test ([1]; Ind 1 L. fermentum, 0.1 ppm, Inc Time 36) | bacterial growth in inhibition test ([1]; Ind 1 L. fermentum, 0.1 ppm, Inc Time 48) | bacterial growth in inhibition test ([1]; Ind 1 L. fermentum, 0.3 ppm, Inc Time 48) | bacterial growth in inhibition test ([2]; Ind 1 L. brevis, 1 ppm, Inc Time 12) | bacterial growth in inhibition test ([2]; Ind 1 L. brevis, 2 ppm, Inc Time 12) | bacterial growth in inhibition test ([2]; Ind 1 L. brevis, 3 ppm, Inc Time 12) | bacterial growth in inhibition test ([2]; Ind 1 L. brevis, 4 ppm, Inc Time 12) | bacterial growth in inhibition test ([2]; Ind 1 L. brevis, 4 ppm, Inc Time 24) | bacterial growth in inhibition test ([2]; Ind 1 L. brevis, 5 ppm, Inc Time 36) | bacterial growth in inhibition test ([2]; Ind 43 L. brevis, 4 ppm, Inc Time 24) | bacterial growth in inhibition test ([2]; Ind 43 L. brevis, 5 ppm, Inc Time 24) | bacterial growth in inhibition test ([2]; Ind 43 L. brevis, 5 ppm, Inc Time 36)
=: bacterial growth in inhibition test ([1]; ATCC L. fermentum, 0.1 ppm, Inc Time 12) | bacterial growth in inhibition test ([1]; ATCC L. fermentum, 0.1 ppm, Inc Time 24) | bacterial growth in inhibition test ([1]; ATCC L. fermentum, 0.1 ppm, Inc Time 36) | bacterial growth in inhibition test ([1]; ATCC L. fermentum, 0.3 ppm, Inc Time 12) | bacterial growth in inhibition test ([1]; ATCC L. fermentum, 0.3 ppm, Inc Time 24) | bacterial growth in inhibition test ([1]; ATCC L. fermentum, 0.3 ppm, Inc Time 36) | bacterial growth in inhibition test ([1]; ATCC L. fermentum, 0.3 ppm, Inc Time 48) | bacterial growth in inhibition test ([1]; ATCC L. fermentum, 0.5 ppm, Inc Time 12) | bacterial growth in inhibition test ([1]; ATCC L. fermentum, 0.5 ppm, Inc Time 24) | bacterial growth in inhibition test ([1]; ATCC L. fermentum, 0.5 ppm, Inc Time 36) | bacterial growth in inhibition test ([1]; ATCC L. fermentum, 0.5 ppm, Inc Time 48) | bacterial growth in inhibition test ([1]; ATCC L. fermentum, 1 ppm, Inc Time 12) | bacterial growth in inhibition test ([1]; ATCC L. fermentum, 1 ppm, Inc Time 24) | bacterial growth in inhibition test ([1]; ATCC L. fermentum, 1 ppm, Inc Time 36) | bacterial growth in inhibition test ([1]; ATCC L. fermentum, 1 ppm, Inc Time 48) | bacterial growth in inhibition test ([1]; ATCC L. fermentum, 5 ppm, Inc Time 12) | bacterial growth in inhibition test ([1]; ATCC L. fermentum, 5 ppm, Inc Time 24) | bacterial growth in inhibition test ([1]; ATCC L. fermentum, 5 ppm, Inc Time 36) | bacterial growth in inhibition test ([1]; ATCC L. fermentum, 5 ppm, Inc Time 48) | bacterial growth in inhibition test ([1]; Ind 1 L. fermentum, 0.1 ppm, Inc Time 12) | bacterial growth in inhibition test ([1]; Ind 1 L. fermentum, 0.3 ppm, Inc Time 12) | bacterial growth in inhibition test ([1]; Ind 1 L. fermentum, 0.3 ppm, Inc Time 24) | bacterial growth in inhibition test ([1]; Ind 1 L. fermentum, 0.3 ppm, Inc Time 36) | bacterial growth in inhibition test ([1]; Ind 1 L. fermentum, 0.5 ppm, Inc Time 12) | bacterial growth in inhibition test ([1]; Ind 1 L. fermentum, 0.5 ppm, Inc Time 24) | bacterial growth in inhibition test ([1]; Ind 1 L. fermentum, 0.5 ppm, Inc Time 36) | bacterial growth in inhibition test ([1]; Ind 1 L. fermentum, 0.5 ppm, Inc Time 48) | bacterial growth in inhibition test ([1]; Ind 1 L. fermentum, 1.0 ppm, Inc Time 12) | bacterial growth in inhibition test ([1]; Ind 1 L. fermentum, 1.0 ppm, Inc Time 24) | bacterial growth in inhibition test ([1]; Ind 1 L. fermentum, 1.0 ppm, Inc Time 36) | bacterial growth in inhibition test ([1]; Ind 1 L. fermentum, 1.0 ppm, Inc Time 48) | bacterial growth in inhibition test ([1]; Ind 1 L. fermentum, 5.0 ppm, Inc Time 12) | bacterial growth in inhibition test ([1]; Ind 1 L. fermentum, 5.0 ppm, Inc Time 24) | bacterial growth in inhibition test ([1]; Ind 1 L. fermentum, 5.0 ppm, Inc Time 36) | bacterial growth in inhibition test ([1]; Ind 1 L. fermentum, 5.0 ppm, Inc Time 48) | bacterial growth in inhibition test ([2]; Ind 1 L. brevis, 5 ppm, Inc Time 12) | bacterial growth in inhibition test ([2]; Ind 1 L. brevis, 5 ppm, Inc Time 24) | bacterial growth in inhibition test ([2]; Ind 43 L. brevis, 1 ppm, Inc Time 12) | bacterial growth in inhibition test ([2]; Ind 43 L. brevis, 2 ppm, Inc Time 12) | bacterial growth in inhibition test ([2]; Ind 43 L. brevis, 3 ppm, Inc Time 12) | bacterial growth in inhibition test ([2]; Ind 43 L. brevis, 4 ppm, Inc Time 12) | bacterial growth in inhibition test ([2]; Ind 43 L. brevis, 5 ppm, Inc Time 12)
